Assay results taken from ChEMBL document CHEMBL3507680, “University of Dundee, Gates Library screen for HepG2 cell viability”.

Test: Human HepG2 cell viability assay in 384 well format
Assay type: toxicity, cell-based
Design: dose 125 nL, time 70.5 hour; concentration not given beside the values
Conditions: HepG2 cells, read-out: Inhibition

| Compound | cytotoxicity at 70.5 h |
| --- | --- |
| c1cncc(N2CCOC3(CCCN(c4nncs4)C3)C2)c1 (configuration not stated) | -7.3% |
| CS(=O)(=O)NC[C@]12COC[C@H]1CN(C(=O)CCc1ccccc1)C2 | -2.39% |
| CC(C)N(C)[C@@H]1CCN(C(=O)[C@H]2CCCO2)[C@H]1Cc1cnn(C)c1 | -4.8% |
| Cn1cc(C[C@H]2[C@@H](O)CCN2C(=O)C2CCC2)cn1 | -1.34% |
| O=C1CCCN1CC1CN(C(=O)N2CCOCC2)Cc2nccn2C1 (configuration not stated) | -2.04% |
| COCC(=O)N1CCC2(CC1)CC(c1cnn(C)c1)C(=O)N2 (configuration not stated) | -6.84% |
| Cc1ccccc1C(=O)N1CC(C(=O)NCC2CC2)C2(CCOCC2)C1 (configuration not stated) | -1.13% |
| Cc1nnc(N2CCCC3(CN(c4cccc(F)c4)CCO3)C2)o1 (configuration not stated) | 1.49% |
| Cc1cccc(CN2CCC3(CCCN(C(=O)CN(C)C)C3)C2=O)n1 (configuration not stated) | 2.41% |
| CN(Cc1cn2c(n1)CN(C(N)=O)CC2)Cc1ccco1 | -1.71% |
| O=C(NCC1CC1)C1CN(C(=O)c2ccnnc2)CC12CCOCC2 (configuration not stated) | -2.63% |
| Cc1nnc(N2C[C@H](C(=O)NCc3ccco3)[C@@H]3CCO[C@@H]3C2)s1 | -1.66% |
| CN1CC(=O)N(c2ccsc2)CC12CCN(Cc1nccn1C)C2 (configuration not stated) | -0.505% |
| Cc1nc([C@H]2C[C@@H]3CCN(C(=O)c4ccnnc4)C[C@H]3O2)sc1C | -0.727% |
| COCCN1C(=O)CCC12CCCN(c1ncc(F)cn1)CC2 (configuration not stated) | 1.58% |
| CCC1=N[C@@]2(CC[C@@H]3CN(S(=O)(=O)CC)C[C@@H]32)C(=O)N1CCOC | -2.77% |
| COCC1CN(C(=O)c2cccn2C)Cc2cnn(C)c21 (configuration not stated) | -0.85% |
| Cn1cnc2c1C(COCC1CC1)CN(C(=O)c1cccs1)C2 (configuration not stated) | 8.88% |
| Cn1cnc2c1C(COCC1CC1)CN(C(=O)c1ccsc1)C2 (configuration not stated) | 6.4% |
| O=C(Cc1ccccn1)N1CCn2cc(Cn3cncn3)nc2C1 | 0.952% |
| Cc1ccc(CN2C[C@@H](c3ccccc3)[C@@]3(CCNC3=O)C2)o1 | 2.86% |
| CCS(=O)(=O)N1CCc2cc(C(=O)NC)c(N(C)C)nc2CC1 | 5.95% |
| O=C(NCCC(O)c1ccccc1)c1ccco1 (configuration not stated) | -8.79% |

| Compound | cytotoxicity at 70.5 h |
| --- | --- |
| O=C(CCn1nc(C(F)(F)F)c(Br)c1C1CC1)NN1CCOCC1 | -4.82% |
| Cc1nn(C)c(C)c1C(=O)NN1CCOCC1 | -6.78% |
| CS(=O)(=O)Nc1ccn(Cc2ccc(Cl)cc2)n1 | 10.5% |
| CCn1ccc(NC(=O)c2cc(C)on2)n1 | -8.5% |
| CC1CCC(NC(=O)c2nn(C)cc2I)CC1 (configuration not stated) | -7.74% |
| Cc1c(Cl)c(C(=O)NC(C)CN2CCOCC2)nn1C (configuration not stated) | 6.43% |
| Cc1nn(C)c(C)c1CN(C)C(=O)c1cc(C(F)(F)F)n(C)n1 | -5.06% |
| Cc1c(CN(C)C(=O)c2ccnn2C)cnn1C | 6.18% |
| COC(=O)C1=C(C)N=C2SCC(=O)N2C1c1cn(C)nc1C (configuration not stated) | -9.65% |
| CCn1ccc(CNC(=O)c2cc(OC)cc(OC)c2)n1 | -10.5% |
| CCn1cc(NC(=O)C(C)n2ncc(Cl)c2C)c(C(=O)NC)n1 (configuration not stated) | -3.34% |
| CCCNC(=O)c1nn(CC)cc1NC(=O)C(C)n1ncc(Cl)c1C (configuration not stated) | -5.37% |
| CCn1cc(NC(=O)C(C)n2ncc(Cl)c2C)c(C(=O)OC)n1 (configuration not stated) | -3.71% |
| Cc1ccnn1CCCNC(=O)C1CCN(S(C)(=O)=O)CC1 | -1.25% |
| COc1cccc(Cn2cc(N3C(=O)CCC3=O)cn2)c1 | 3.42% |
| CCc1nnc(SCc2nonc2C)n1C1CC1 | -10.7% |
| CCn1cc(-c2nn3c(C(F)(F)F)nnc3s2)c(C)n1 | -3.8% |
| Cc1cc(C(F)(F)F)nc(N2CCN3CCCC3C2)n1 (configuration not stated) | -10.5% |
| Cc1ccc(-c2cc(C(F)(F)F)nc(N3CCOCC3)n2)s1 | -11.3% |
| NC(=O)c1nc(-c2ccc(Cl)cc2Cl)oc1N | -3.66% |
| CCn1cc(CN(C)S(=O)(=O)c2cnn(C)c2)cn1 | -6.45% |
| CC(Cn1cccn1)NC(=O)c1cc(C2CC2)nc2c1cnn2C (configuration not stated) | -9.86% |
| CC(CNC(=O)c1cc(C2CC2)nc2c1cnn2C)Cn1cccn1 (configuration not stated) | -6.63% |

| Compound | cytotoxicity at 70.5 h |
| --- | --- |
| CCn1ncc2c(C(F)(F)F)cc(-c3cnn(C)c3)nc21 | -11.4% |
| Nc1nnc(CCCn2nnc(-c3ccccc3F)n2)s1 | -15.5% |
| Clc1ccc2[nH]c3c(c2c1)CCCC3c1nn[nH]n1 (configuration not stated) | -6.09% |
| COc1ccc([C@@H]2NC(=O)N[C@H]3OCCC[C@H]32)cc1 | -4.38% |
| COc1c(C2SCC(=O)Nc3[nH]ncc32)cc2c(c1OC)OCO2 (configuration not stated) | -13.6% |
| O=C1CC(c2ccc(F)cc2)c2snc(C(=O)O)c2N1 (configuration not stated) | -10.3% |
| COc1ccc(C2=NOC(C#N)C2)cc1 (configuration not stated) | 8.47% |
| N#Cc1ccc(C2CC(=O)Nc3c(C(=O)O)nsc32)cc1 (configuration not stated) | -5.94% |
| CCc1ccccc1NC(=O)c1cnn(C)c1C | -7.12% |
| COC(=O)Cn1ccc(=O)c2ccc(OC)cc21 | 39.1% |
| CCN(CC)C(=O)c1nnsc1-c1ccc(Cl)cc1 | -17.2% |
| CS(=O)(=O)N1CCN(C(=O)c2cc(-c3cccs3)cs2)CC1 | -5.33% |
| CS(=O)(=O)N1CCN(C(=O)c2cc(-c3ccco3)cs2)CC1 | 0.0321% |
| O=C(c1cc(-c2ccco2)cs1)N1CCOCC1 | -0.411% |
| O=C(NC1CC1)c1cc(Sc2ncccn2)ccn1 | -14.6% |
| Cc1cc(C(=O)Nc2cnn(CC(F)(F)F)c2)nc(N(C)C)n1 | -1.64% |
| Cc1ccc(C(=O)Nc2c(C(=O)N(C)C)nn(C)c2C)cc1 | -4.31% |
| Cc1c(NC(=O)c2ccc(Br)cc2)c(C(=O)N(C)C)nn1C | -6.74% |
| COc1ccc(C(=O)Nc2c(C(=O)N(C)C)nn(C)c2C)cc1 | -6.56% |
| Cc1ccnn1C(C)C(=O)Nc1cc(-c2ccncc2)[nH]n1 (configuration not stated) | -6.01% |
| O=C(c1cc(-c2ccco2)cs1)N1CCCC1 | -16.3% |
| O=C1c2cnc(N3CCC(O)CC3)nc2CN1Cc1cccc(F)c1 | 22% |
| NC(=O)CN1CCOCC(Cc2cccc(F)c2)C1 (configuration not stated) | -12.7% |

| Compound | cytotoxicity at 70.5 h |
| --- | --- |
| NC(=O)CN1CCOCC(Cc2ccccc2Cl)C1 (configuration not stated) | -3.99% |
| Cc1ccnc(C2(C)CCCN2C(=O)c2cnccn2)n1 (configuration not stated) | -10.4% |
| CN(C)c1ncccc1CN1CCOC(C(=O)Nc2ccccc2)C1 (configuration not stated) | -7.2% |
| Cc1ccccc1CNC(=O)c1ccccc1-n1cc(CN)cn1 | -8.06% |
| CN(C)c1cc(C2CCCN2Cc2ccccc2OCC(=O)O)ccn1 (configuration not stated) | -6.83% |
| O=C(c1ccno1)N1CCCC(c2ncncc2-c2ccncc2)C1 (configuration not stated) | -9.77% |
| O=C(N1CCOCC1)N1CCCC(c2ncncc2-c2ccncc2)C1 (configuration not stated) | -9.55% |
| Cc1cc(CN2CCC(C3Nc4ccccc4S(=O)(=O)N3)CC2)oc1C (configuration not stated) | -3.27% |
| Cc1cc(-c2cnc(N3CCOCC3)nc2-c2cccnc2C)on1 | -4.33% |
| Cc1cc(-c2cnc(N3CCNC(=O)C3)nc2-c2sccc2C)on1 | -6.64% |
| CC(=O)N1CCCC(c2ccc(N3CCOCC3)cn2)C1 (configuration not stated) | -5.65% |
| COCC(=O)N1CCCCC1c1nccc(C)n1 (configuration not stated) | 3.46% |
| CC(=O)N1CCCC(c2ccc(Br)cn2)C1 (configuration not stated) | -6.22% |
| CCN1CCCC(c2cc(Nc3cnccn3)nc(C)n2)C1 (configuration not stated) | -6.21% |
| O=C(C1CCC1)N1CCC(c2ncc3c(n2)CCNC3)CC1 | -6.1% |
| Cc1cc(C2CCCCCN2Cc2cn(C)nc2C)no1 (configuration not stated) | -6.86% |
| CN1CCc2nc(C3CCCCN3Cc3ccccc3Cl)ncc2C1 (configuration not stated) | -4.18% |
| c1cnc(-c2cnc(N3CCCCC3)nc2C2CCCO2)cn1 (configuration not stated) | -5.56% |
| O=C(c1cscn1)N1CCC(O)(Cn2ccc3ccncc32)CC1 | -6.76% |
| CCc1cc(C(=O)N2CCC(O)(Cn3ccc4ccncc43)CC2)no1 | -5.47% |
| Cc1nc(C)c(C(=O)N2CCC(O)(Cn3ccc4ccncc43)CC2)s1 | 1.41% |
| O=C(C1CCOCC1)N1CCC(O)(Cn2ccc3ccncc32)CC1 | -6.06% |
| CC(C)S(=O)(=O)N1CCC(c2cc3n(n2)[C@@H](C(F)(F)F)C[C@@H](C)N3)CC1 | -7.62% |

| Compound | cytotoxicity at 70.5 h |
| --- | --- |
| Cc1ccc(S(=O)(=O)N2C[C@H]3C[C@H](NC(=O)c4cc(C)no4)[C@H]3C2)cc1 | -3.09% |
| Cc1ccsc1CN1CCc2nc3ccsc3c(=O)n2CC1 | -4.51% |
| O=c1c2sccc2nc2n1CCN(Cc1ccccc1C(F)(F)F)CC2 | -10.4% |
| O=c1c2sccc2nc2n1CCN(Cc1cc(F)ccc1F)CC2 | -7.47% |
| O=C1CCCN1CC1CN(CC2CCOCC2)Cc2nccn2C1 (configuration not stated) | -2.55% |
| c1cnc(N2CCOCC3(CN(Cc4nccs4)CCO3)C2)nc1 (configuration not stated) | -2.26% |
| O=C(c1ccc(F)cc1)N1C[C@H]2CCC[C@@]2(COCc2ccncc2)C1 | -0.425% |
| Cc1ccsc1C(=O)N1Cc2ncn(C)c2C(COCC2CC2)C1 (configuration not stated) | 5.9% |
| O=C(Cc1ccccn1)NCC1OCCc2cn(CC3CC3)nc21 (configuration not stated) | 11.2% |
| O=C(NC1CC1)[C@H]1C[C@H]2OCC[C@H]2N(Cc2cccc3ccccc23)C1 | -0.842% |
| O=C(c1ccco1)N1C[C@@H]2[C@@H](C1)OCC(=O)N2Cc1cccnc1 | 7.81% |
| O=S(=O)(C1CC1)N1C[C@H](Oc2ccccn2)[C@H]2OCCC[C@H]21 | -0.632% |
| CN(C)S(=O)(=O)N1C[C@@H]2CN(Cc3ccoc3)CCO[C@@H]2C1 | -4.48% |
| Cc1noc([C@@H]2C[C@H]3CN(CC4CCOCC4)C[C@H]3O2)n1 | 14.1% |
| O=S(=O)(C1CC1)N1CCC[C@]2(C[C@@H](Oc3ccccn3)CO2)C1 | 14.1% |
| CC(C)N1CCOCC2(CN(Cc3cccs3)CCO2)C1 (configuration not stated) | -0.496% |
| c1cn2c(n1)CN(C1CCOCC1)CC(CN1CCCC1)C2 (configuration not stated) | -2.92% |
| Cn1cc(CN2CCO[C@@H]3CN(C4CCCC4)C[C@@H]3C2)cn1 | 1.26% |
| CCOCC1CN(Cc2cccnc2OC)Cc2cnn(C)c21 (configuration not stated) | 2.89% |
| Cc1cc(C[C@@H]2COC[C@H]2NCc2ccc(C)c(C)c2)on1 | -7.12% |
